Reference: patent publication US20240147995A1, “INSECT NEUROPEPTIDES 5” (Solasta Bio Limited, priority 2022, published 2024)

Tests used:
Spodoptera frugiperda = test: Lepidoptera artificial diet assay against Spodoptera frugiperda (pupation and mortality); type: in vivo; conditions: unformulated SB-P-70; 1×10^−4 M in diet; L1 larvae; FIG. 8, after 168 hours; compared to negative control vehicle and DDT
Text: Frontier Lepidoptera artificial diet was made up by preparing agar at 1% and then mixing it with artificial diet powder. Peptide solution was aliquoted in 10 cells and diet poured straight onto it. The final concentration of the peptide was 1×10^−4 M, and each peptide was aliquoted in 10 cells. Once the diet solidified and cooled down, one L1 larvae was infested in each cell. The trays were sealed with heat and let larva were allowed to develop for 168 hrs. Finally, pupation and mortality were scored for. Lepidoptera artificial diet assays were performed with SB-P-70, and compared to a negative control vehicle and the insecticide dichlorodiphenyltrichloroethane (DDT).

Plutella xylostella = test: Leaf dip assay testing against Plutella xylostella (mortality); type: in vivo; conditions: unformulated SB-P-70; FIG. 6, after 96 hours; compared to negative control vehicle and Chlorantraniliprole
Description: The assay was carried out based on IRAC susceptibility test method 019 (https://irac-online.org/methods/aphids-adultnymphs/). Fill a small 4 cm wide 3 cm high dish with a 1% agar treatment solution of the active chemical or control (ensuring 1 cm gap between the agar and the lid) and leave to set. Dip a 2.5 cm leaf disc into 3 ml of treatment solution allowing the treatment to coat the leaf. Leave the disc to dry for 1 hour and place onto the set agar. Place insects (Plutella xylostella) onto each of the leaf discs. Each unit is sealed with a close-fitting, ventilated lid. Place the agar dishes in a small plastic tray lined with moist tissue paper and ensure the water trays in the bottom of the incubator are filled with clean water and place within the incubator. An assessment of mortality is made at 72, 96 and 120 hours. Leaf dip assays were performed with SB-P-70, and compared to a negative control vehicle and a current commercial insecticide Chlorantraniliprole. The activity of SB-P-70 is shown in FIG. 6; SB-P-70 has good activity whilst being eco-friendly and targeted to specific pests unlike broad spectrum chemical insecticides such as Chlorantraniliprole.

[Hy]-KVKFSAWG-[NH2] (H-KVKFSAWG-NH2) [SB-P-70]
activity against Spodoptera frugiperda (pupation and mortality, artificial diet assay) (Spodoptera frugiperda): much higher activity
activity against Plutella xylostella (mortality, leaf dip assay) (Plutella xylostella): good activity
